# Experiments:
# Experiment in all cases: relative viability (nuclei count vs DMSO), 5 days (fraction); higher = more cells survive
# [1] = compound: OCc1c[nH]c2ccccc12 [Indole-3-carbinol] + N=C(N)NC(=N)NCCc1ccccc1 [Phenformin] (partner 250 µM)
# How it was run: (§1)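 Lung cancer cell lines, seeded in 1536-well plates, were treated the following day by pin tool with a single drug or with five library-drug doses (not always all listed) in √10 steps on top of a fixed anchor-drug dose. Cells were fixed and nuclei stained in one step after 5 days, and nuclei were counted. Relative viability is the nuclei count for treated wells divided by that for vehicle wells, reported as medians of duplicate plates.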
# [2] = compound: OCc1c[nH]c2ccccc12 [Indole-3-carbinol] + C[C@@H](Oc1cc(-c2cnn(C3CCNCC3)c2)cnc1N)c1c(Cl)ccc(F)c1Cl [Crizotinib] (partner 1 µM)
# How it was run: as §1
# [3] = compound: OCc1c[nH]c2ccccc12 [Indole-3-carbinol] + COc1cccc2cc(-c3nc([C@H]4CC[C@H](C(=O)O)CC4)n4ncnc(N)c34)[nH]c12 [OSI-027] (partner 0.5 µM)
# How it was run: as §1
# [4] = compound: OCc1c[nH]c2ccccc12 [Indole-3-carbinol] + Cc1nc(NC(=O)N2CCC[C@H]2C(N)=O)sc1-c1ccnc(C(C)(C)C(F)(F)F)c1 [Alpelisib] (partner 2 µM)
# How it was run: as §1
# [5] = compound: OCc1c[nH]c2ccccc12 [Indole-3-carbinol] + COc1cc2c(Oc3ccc(NC(=O)C4(C(=O)Nc5ccc(F)cc5)CC4)cc3F)ccnc2cc1OCCCN1CCOCC1 [Foretinib] (partner 0.25 µM)
# How it was run: as §1
Cell Line,relative viability ([1]; first compound 0.253 µM),relative viability ([1]; first compound 0.8 µM),relative viability ([1]; first compound 2.53 µM),relative viability ([1]; first compound 8 µM),relative viability ([2]; first compound 0.253 µM),relative viability ([2]; first compound 0.8 µM),relative viability ([2]; first compound 2.53 µM),relative viability ([2]; first compound 8 µM),relative viability ([3]; first compound 0.253 µM),relative viability ([3]; first compound 0.8 µM),relative viability ([3]; first compound 2.53 µM),relative viability ([3]; first compound 8 µM),relative viability ([4]; first compound 0.253 µM),relative viability ([4]; first compound 0.8 µM),relative viability ([4]; first compound 2.53 µM),relative viability ([4]; first compound 8 µM),relative viability ([5]; first compound 0.253 µM),relative viability ([5]; first compound 0.8 µM),relative viability ([5]; first compound 2.53 µM),relative viability ([5]; first compound 8 µM)
NCI-H1755,0.645,0.594,0.636,0.625,0.916,0.97,0.862,0.888,0.761,0.664,0.822,0.699,0.97,0.935,0.907,0.886,0.982,0.953,0.895,0.895
NCI-H1915,0.383,0.365,0.368,0.354,0.881,0.852,0.892,0.924,0.571,0.611,0.623,0.563,1.05,1.05,1.07,1.03,1.03,1.08,1.06,1.01
NCI-H1944,0.202,0.195,0.202,0.199,1.06,0.951,1.12,0.955,0.375,0.378,0.369,0.363,0.871,0.805,0.725,0.822,0.876,0.775,0.846,0.77
NCI-H1975,0.391,0.413,0.419,0.417,1,1.13,0.966,0.97,0.589,0.808,0.696,0.743,0.635,0.734,0.736,0.583,0.888,0.977,1.01,0.873
NCI-H1993,0.516,0.523,0.516,0.549,0.873,0.896,0.813,0.944,0.513,0.516,0.63,0.468,0.723,0.663,0.631,0.674,0.716,0.899,0.763,0.846
NCI-H2009,0.512,0.515,0.506,0.465,0.993,1.07,0.953,1,0.572,0.677,0.649,0.604,1.17,1.23,1.16,1.11,1.18,1.13,1.21,1.17
NCI-H2023,0.454,0.426,0.434,0.399,0.716,0.732,0.651,0.631,0.406,0.405,0.438,0.398,0.587,0.587,0.592,0.626,0.978,0.971,0.822,0.916
NCI-H2085,0.684,0.85,0.787,0.624,0.897,0.738,0.832,0.786,0.76,0.884,0.747,0.684,0.905,1.06,1.05,0.854,0.781,1.11,0.879,0.865
NCI-H2087,0.45,0.525,0.466,0.386,1.01,0.997,1.1,0.88,0.435,0.644,0.571,0.513,0.807,1.15,1.01,0.942,1.08,1.47,1.18,1.13
NCI-H2126,0.51,0.518,0.525,0.512,1.01,1.05,1.02,1.03,0.706,0.745,0.65,0.791,0.751,0.808,0.714,0.764,1.05,1.23,1.25,1.06
NCI-H2170,0.451,0.385,0.432,0.418,1.26,1.3,1.15,1.03,0.702,0.815,0.749,0.671,0.794,0.815,0.738,0.81,1.04,0.861,0.815,0.943
NCI-H2228,0.327,0.354,0.365,0.383,0.582,0.461,0.567,0.454,0.477,0.724,0.597,0.651,0.697,0.902,0.779,0.629,0.945,0.897,0.984,0.935
NCI-H2347,0.405,0.34,0.496,0.435,0.747,0.607,0.706,0.671,0.429,0.374,0.287,0.364,1.06,1.08,1.14,0.868,0.743,,1.21,0.931
NCI-H2405,0.426,0.376,0.391,0.44,0.875,0.825,0.901,0.78,0.617,0.676,0.633,0.656,0.901,0.661,0.988,0.749,1.07,1.07,1.04,0.997
NCI-H3122,0.391,0.364,0.413,0.381,0.289,0.293,0.281,0.292,0.967,1.08,1.02,0.948,0.878,0.879,0.855,0.74,0.972,0.962,0.999,0.961
PC-3 [JPC-3],0.477,0.483,0.483,0.473,0.946,1.08,0.997,0.969,0.714,0.741,0.704,0.745,1.08,1.13,1.03,0.967,1.07,1.05,1.02,0.967

# Reference: the supplement of paper PMC10307832
